Reference: article PMC10985088, “Synthesis and biological evaluation of echinomycin analogues as potential colon cancer agent” (Scientific Reports, 2024)

Tests used:
[1] = Hepatic microsomal stability assay, mouse; assay type: in vitro ADME; conditions: 0.2 mg/mL microsomes, 37 °C, 30 min; for CLint scaled at 1 μM: mouse liver microsomes, pH 7.4, 1 μM; for CLint scaled: microsomes, 1 μM
Experimental: (§1) Before investigating the in vivo efficacy of 3, its metabolic stability was evaluated by treatment with human or mouse liver microsomes at 37 °C for 30 min, and the remaining analogues were analyzed by LC–MS/MS (Table 3). […] This means that approximately 67% of 3 was unaffected by human liver microsomes.
(§2) Basically, the analysis was performed using methods previously reported. Disappearance of the parent compound over time was measured by using the amount of drug at time zero as a reference. After 5 min of preincubation, 1 mM NADPH (final concentration, the same applies to the following, NADPH( +)) or 0.1 M phosphate buffer (pH 7.4, NADPH(−))) was added to a mixture containing 1 μM of the test compound, 0.2 mg/mL of human or mouse liver microsomes (Sekisui XenoTech LLC (Kansas City, KS)), 1 mM EDTA and 0.1 M phosphate buffer (pH 7.4) and incubated at 37 °C for 30 min by rotation at 60 rpm. An aliquot of 50 μL of the incubation mixture was sampled and added to 250 μL of chilled acetonitrile/internal standard (IS). After centrifuging for 15 min at 3150×g (4 °C), the supernatants were analyzed by LC–MS/MS. Hepatic microsomal stability (mL/min/kg, CLint) was calculated according to the previous report, using 48.8 and 45.4 mg MS protein/g liver and 25.7 and 87.5 g liver/kg body weight as scaling factors for human and mouse, respectively.
(§3) Basically, the analysis was performed using methods previously reported. An LC-MS8060 instrument equipped with a Shimadzu Nexera series LC system (Shimadzu, Kyoto, Japan) was used. All compounds were analyzed in multi-reaction monitoring mode under electron spray ionization conditions. The analytical column used was a […] C18 MGIII (3 μm × 2.0 mmID × 35 mm; OSAKA SODA, Osaka, Japan) at 50 °C. The gradient mobile phase consisted of 0.1% formic acid in water (mobile phase A,) and 0.1% formic acid in acetonitrile (mobile phase B) at a total flow rate of 1 mL/min. The initial mobile phase composition was 10% B, which was held constant for 0.2 min, increased in a linear fashion to 90% B over 1 min, then held constant for 0.8 min, and finally brought back to the initial condition of 10% B over 0.01 min and re-equilibrated for 1 min. The transitions (precursor ion > product ion) of echinomycin, 3 and IS (methyl testosterone) are 1101.45 > 1053.5 (positive), 1083.5 > 523.95 (negative), and 303.1 > 109.1 (positive), respectively.

[2] = Hepatic microsomal stability assay, human; assay type: in vitro ADME; conditions: 30 min; for CLint scaled at 1 μM: human liver microsomes, pH 7.4, 1 μM; for CLint scaled at 1 μM / CLint scaled: 0.2 mg/mL microsomes, 37 °C; for CLint scaled: microsomes, 1 μM
Experimental: as §1, §2, §3

[3] = Serum biochemistry / blood examination of treated mice; assay type: in vivo; conditions: 0.4 µg/mouse i.p., Day 14
Experimental: (§4) Toxicity Body weight change is an indicator of systemic toxicity. Accordingly, the body weights of mice intraperitoneally treated with different doses (0.04 and 0.4 µg/mouse) of either 1 or 3 were measured (Fig. S1). […] A blood hematological examination (including nineteen parameters) was also conducted on these mice on Day 14 (Fig. S2). There were no significant changes in almost any of the parameters in the mice treated with either 1 or 3 at doses of 0.04 or 0.4 µg/mouse.
Male BALB/c mice (7 weeks old) were purchased from Charles River Laboratories Japan, Inc. Each compound was intraperitoneally injected daily for 14 days. […] Serum was collected by centrifuging blood at 5000 rpm for 10 min. Biochemistry was performed in Oriental Yeast Co., Ltd, Japan.

[4] = test system: MIA PaCa-2 cells; conditions: read-out: IC50 MIA PaCa-2; human pancreatic carcinoma cell, 72 h, mean ± SE (n = 3)
Experimental: (§5) With a range of chromophore analogues in hand, their toxicity to SW620 cells was investigated by WST assays.
(§6) Basically, the evaluation was performed using methods previously reported by our group[20],[23]. Cytotoxic activities of compounds against MIA PaCa-2 (American Type Culture Collection), SW620 (European Collection of Authenticated Cell Cultures) were measured by WST-8 assay according to manufacturer’s protocol. Briefly, cells (1 × 10^4 cells/well) in a 96-well plate were cultured in medium (for MIA PaCa-2, D-MEM (Wako, Japan) containing 10% fetal bovine serum (Funakoshi, Japan), 100 units/mL penicillin G and 100 µg/mL streptomycin (Wako, Japan), for SW620, RPMI-1640 (Wako, Japan) containing 10% fetal bovine serum, 100 units/mL penicillin G and 100 µg/mL streptomycin) were cultured at 37 °C for 24 h under 5% CO2 atmosphere. Then, cells were treated with test compounds (final DMSO concentration was 1%) at 37 °C for 72 h under 5% CO2 atmosphere. Then, cells were treated with a solution of Cell Counting Kit-8® (Dojindo, Japan) for 3 h. After that, cell viabilities were determined based on the measurement of absorption at 450 nm of the wells by using TECAN Infinite® M200 microplate reader. The results were expressed as a percentage of the negative control (cells treated with DMSO only), and that value was fixed at 100%.

[5] = Investigation of maximum tolerated dose (body weight of mice); assay type: in vivo, mouse; conditions: 14 days
Experimental: as §4

[6] = test system: SW620 cells; test: WST-8 cytotoxicity assay, SW620; conditions: read-out: IC50 SW620; human colon cancer cell, 72 h, mean ± SE (n = 3)
Experimental: as §5, §6

[7] = NADPH(+), read-out: Metabolic stability (CLint) Mouse NADPH(+)
[8] = NADPH(−), read-out: Metabolic stability (CLint) Mouse NADPH(−)
[9] = NADPH(+), read-out: Metabolic stability (CLint) Human NADPH(+)
[10] = NADPH(−), read-out: Metabolic stability (CLint) Human NADPH(−)

| SMILES | CLint scaled at 1 μM [1, 7] | CLint scaled at 1 μM [1, 8] | CLint scaled at 1 μM [2, 9] | CLint scaled at 1 μM [2, 10] | alanine aminotransferase (ALT) [3] | aspartate aminotransferase (AST) [3] | lactate dehydrogenase (LDH) [3] | total bilirubin (T-BIL) [3] | IC50 [4] | CLint scaled [1, 7] | CLint scaled [1, 8] | body weight ([5]; i.p. 0.04 and 0.4 µg/mouse, daily) | dose up to which no significant toxicity is shown ([5]; i.p. daily, body weight and blood examination) | maximum tolerated dose ([5]; i.p. daily, expected) | remaining at 0.5 h, 1 μM ([2]; liver microsomes, pH 7.4, 37 °C, in the presence of NADPH, read-out: fraction unaffected by human liver microsomes) | CLint scaled [2, 9] | CLint scaled [2, 10] | IC50 [6] |
| --- | --- | --- | --- | --- | --- | --- | --- | --- | --- | --- | --- | --- | --- | --- | --- | --- | --- | --- |
| Cc1ncc2n1-c1ccc(Cl)cc1C(c1ccccc1F)=NC2 [Midazolam] | 4010 mL/min/kg | < 69.8 mL/min/kg | 435 mL/min/kg | < 22 mL/min/kg | – | – | – | – | – | – | – | – | – | – | – | – | – | – |
| CC(C)[C@H]1C(=O)OC[C@@H](NC(=O)c2nc3ccccc3cc2O)C(=O)N[C@@H](C)C(=O)N(C)[C@H]2CSC[C@@H](C(=O)N1C)N(C)C(=O)[C@H](C)NC(=O)[C@H](NC(=O)c1nc3ccccc3cc1O)COC(=O)[C@H](C(C)C)N(C)C2=O [Compound 3] | – | – | – | – | increase | increase | increase | decrease | 1.4 ± 0.1 nM | 386 mL/min/kg | 118 mL/min/kg | did not differ greatly from those of the control | ≥ 0.04 µg/mouse | 0.04 µg/mouse | ~67% | 83.7 mL/min/kg | 45.1 mL/min/kg | 0.85 ± 0.13 nM |
